From patent US20240398806A1, “Compositions For and Methods of Treating and/or Preventing Pain” (Duke University, priority 2021, published 2024)
Where two headings read alike, the source gives them in different places.

Assays:
NMDAR = assay type: cell-based; conditions: Arrb2-KO mice; NMDA 50 mM as printed
Method: In FIG. 9B-FIG. 9D. *p<0.05 as determined by a two-way or one-way ANOVA.
Spinal cord NMDAR plays a critical role in driving inflammatory and neuropathic pain (Woolf C J, et al. (2000) Science. 288(5472):1765-1769). Using spinal cord slice preparations, NMDA (50 mM) induced inward currents in spinal cord out lamina II (IIo) neurons were recorded in WT and Arrb2-KO mice. […] Similarly, duration of intrathecal (i.t.) NMDA-induced spontaneous pain was also potentiated in the KO mice (FIG. 9C).

[1] = Pharmacokinetics in monkey (IV and PO); assay type: in vivo; conditions: for AUC: monkey; for MRT last: read-out: MRT0-last
NTSR2 = molecular target: T1, NTSR2 (Homo sapiens, UniProt O95665); assay: Cellular assay of β-arrestin-2 translocation in cells expressing NTSR2; assay type: cell-based
T1 construct: expressed in transfected cells; host or cells: HEK293 cells
T1 sequence (O95665 whole entry, species assumed): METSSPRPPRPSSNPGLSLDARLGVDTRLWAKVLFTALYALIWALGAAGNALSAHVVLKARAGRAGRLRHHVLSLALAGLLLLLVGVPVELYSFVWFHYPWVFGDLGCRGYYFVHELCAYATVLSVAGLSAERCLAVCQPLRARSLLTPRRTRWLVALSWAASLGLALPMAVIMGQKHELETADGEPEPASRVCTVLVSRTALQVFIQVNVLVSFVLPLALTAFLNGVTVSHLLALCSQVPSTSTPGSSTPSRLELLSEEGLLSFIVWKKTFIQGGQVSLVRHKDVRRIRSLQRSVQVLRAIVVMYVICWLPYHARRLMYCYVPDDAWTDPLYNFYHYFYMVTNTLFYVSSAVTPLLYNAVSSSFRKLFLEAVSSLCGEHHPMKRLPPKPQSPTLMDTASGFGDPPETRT
Method: (§1) First, using cellular assays, whether IND candidates such as SBI-810 are similar or better than SBI-553 as β-arrestin biased agonist at NTSR1. is assessed. The chemical entities used in this work were synthesized and validated. However, routine validation of the profile of these compounds is performed routinely using both cellular and in vivo assays. For example, HEK293 cells that express either the NTSR1 or NTSR2 are used to assess the functional profile of the various chemical probes. In addition, a series of genetically engineered mouse lines are used to provide an in vivo validation of novel chemical entities for their abilities to module behaviors in these animals.
(§2) Fourth, cellular assays are used to establish that IND ready analogs like SBI-810 are still selective for the NTSR1 rather than NTSR2. The specificity of the lead compounds toward NTSR1. NTSR2. and β-arrestin-2 are tested in respective cellular assays. More specifically, cells expressing either NTSR1 or NTSR2 are used to assess the function of various compound. […] This translocation is not observed in cells expressing NTSR2.
(§3) Fourth, genetically engineered mice are used to assess the effects and mechanisms of novel ligands. The specificity of the lead compounds toward NTSR1, NTSR2, and β-arrestin-2 dependent signaling is examined. […]

[2] = Pain models with systemic (IP or oral) administration; assay type: in vivo, mice and rats
NTSR1 [3] = molecular target: T2, NTSR1 (Homo sapiens, UniProt P30989); assay: Cellular assay of β-arrestin-2 translocation in cells expressing NTSR1; assay type: cell-based; parameters: expressed in transfected cells; host or cells: HEK293T cell membranes
T2 sequence (P30989 whole entry): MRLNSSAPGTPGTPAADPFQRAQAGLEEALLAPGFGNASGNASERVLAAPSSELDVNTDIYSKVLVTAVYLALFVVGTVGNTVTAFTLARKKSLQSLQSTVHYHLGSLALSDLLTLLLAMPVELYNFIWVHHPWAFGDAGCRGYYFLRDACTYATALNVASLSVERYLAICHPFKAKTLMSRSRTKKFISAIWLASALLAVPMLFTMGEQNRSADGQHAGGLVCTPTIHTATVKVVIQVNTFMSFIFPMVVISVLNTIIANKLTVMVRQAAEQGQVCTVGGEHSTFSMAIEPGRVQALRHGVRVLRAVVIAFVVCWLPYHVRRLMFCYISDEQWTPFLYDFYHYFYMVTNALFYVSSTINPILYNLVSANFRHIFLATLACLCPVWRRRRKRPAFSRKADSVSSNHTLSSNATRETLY
Method: as §1, §2, §3

NTSR1 [4] = molecular target: T2, NTSR1; assay: [3H]SBI-553 saturation binding to NTSR1-containing HEK293T cell membranes; parameters: expressed in transfected cells; host or cells: HEK293T cell membranes; conditions: by the named competitor
lamina IIo neurons = tested on: lamina IIo neurons; parameters: dose or concentration left out as unconfirmed; conditions: slices of PTX-treated mice

In the case of C[C@@H](CN1CCC(Cc2ccccc2)CC1)[C@@H](O)c1ccc(O)cc1 [Ro25], the “Block of the increase in NMDA current amplitude caused by Arrb2 deficiency” value (NMDAR) was “dose-dependently blocked”.

For COc1ccccc1C1CCN(c2nc(C3(C)CC3)nc3ccc(N(C)CCO)cc23)CC1 [SBI-810], the Co ([1]; Monkey, IV 5 mg/kg) was 4702 ng/mL, the T2/2 ([1]; Monkey, IV 5 mg/kg) was 6.54 h and the CI ([1]; Monkey, PO 20 mg/kg) was 5.2 mL/min/kg. For the same compound, the Co ([1]; Monkey, PO 20 mg/kg) was 314 ng/mL, the Oral availability ([1]; compared with SBI-553) was “enhanced oral availability” and the Levels in plasma ([1]; following i.v. and p.o. dosing) was “good levels in plasma”. The AUC ([1]; plasma, iv, 5 mg/kg, Monkey, IV 5 mg/kg, read-out: AUCo-inf) was 4340 ng·h/mL, the AUC ([1]; plasma, iv, 5 mg/kg, Monkey, IV 5 mg/kg, read-out: AUCo-last) was 4210 ng·h/mL and the AUC ([1]; plasma, po, 20 mg/kg, Monkey, PO 20 mg/kg, read-out: AUCo-inf) was 2230 ng·h/mL. It also gave an AUC ([1]; plasma, po, 20 mg/kg, Monkey, PO 20 mg/kg, read-out: AUCo-last) of 2120 ng·h/mL, a clearance ([1]; plasma, Monkey, IV 5 mg/kg) of 19.2 mL/min/kg and an MRT last ([1]; plasma, Monkey, IV 5 mg/kg) of 3.4 h. It also gave a Vd ([1]; plasma, Monkey, IV 5 mg/kg, read-out: Vdss) of 5 L/kg, a half-life ([1]; plasma, Monkey, PO 20 mg/kg) of 4 h and an MRT last ([1]; plasma, Monkey, PO 20 mg/kg) of 8 h. The “Translocation of β-arrestin-2 to intracellular compartments” value (NTSR2) was “not observed”, the “Pain reduction compared with SBI-553” value [2] was “more effective in reducing pain than SBI-553” and the “Translocation of β-arrestin-2 to intracellular compartments” value (NTSR1 [3]) was “demonstrate translocation of β-arrestin-2”.

With COc1cccc(OC)c1-c1cc(C(=O)NC2(C(=O)O)C3CC4CC(C3)CC2C4)nn1-c1ccc(C(=O)N(C)CCCN(C)C)cc1C(C)C (stereo not drawn) [SR142948A, reference compound] the “Displacement of [3H]SBI-553 from NTSR1” value (NTSR1 [4]) was “not displaced”.

With CN1CC[C@]23c4c5ccc(O)c4O[C@H]2[C@@H](O)C=C[C@H]3[C@H]1C5 [morphine, reference compound] the “Excitatory synaptic transmission (sEPSCs) in lamina IIo neurons” value (lamina IIo neurons) was “did not produce significant inhibition”.
